Experimental data as given in PubChem BioAssay (NCI).
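Values below derive from 48-hour exposures of cells grown in 96-well plates, with endpoints linearly interpolated between the two concentrations bracketing the appropriate inhibition level. At the GI50, growth is halved. Definition used: TGI = concentration required for complete inhibition of growth.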

What was measured:
Test in all cases: DTP human tumour cell line panel, 48 h
HOP-62 NSCLC = system: HOP-62 NSCLC
HT29 colon = system: HT29 colon
SK-OV-3 ovarian = system: SK-OV-3 ovarian
SNB-19 CNS = system: SNB-19 CNS
SF-268 CNS = system: SF-268 CNS
KM12 colon = system: KM12 colon
CCRF-CEM leukemia = system: CCRF-CEM leukemia
TK-10 renal = system: TK-10 renal
DU-145 prostate = system: DU-145 prostate
MCF7 breast = system: MCF7 breast
MALME-3M melanoma = system: MALME-3M melanoma
SK-MEL-28 melanoma = system: SK-MEL-28 melanoma
UO-31 renal = system: UO-31 renal
NCI-H460 lung = system: NCI-H460 lung
IGROV1 ovarian = system: IGROV1 ovarian
OVCAR-4 ovarian = system: OVCAR-4 ovarian
RPMI-8226 leukemia = system: RPMI-8226 leukemia
SNB-75 CNS = system: SNB-75 CNS
SK-MEL-5 melanoma = system: SK-MEL-5 melanoma
HS 578T breast = system: HS 578T breast
SR leukemia = system: SR leukemia
HCC-2998 colon = system: HCC-2998 colon
A549 NSCLC = system: A549 NSCLC
OVCAR-5 ovarian = system: OVCAR-5 ovarian
NCI-H522 lung = system: NCI-H522 lung
ACHN renal = system: ACHN renal
CAKI-1 renal = system: CAKI-1 renal
UACC-62 melanoma = system: UACC-62 melanoma
BT-549 breast = system: BT-549 breast
RXF 393 renal = system: RXF 393 renal
LOX IMVI melanoma = system: LOX IMVI melanoma
SN12C renal = system: SN12C renal
COLO 205 colon = system: COLO 205 colon
NCI-H23 lung = system: NCI-H23 lung
NCI-H226 lung = system: NCI-H226 lung
SW-620 colon = system: SW-620 colon
OVCAR-8 ovarian = system: OVCAR-8 ovarian
PC-3 prostate = system: PC-3 prostate
A498 renal = system: A498 renal
HCT-15 colon = system: HCT-15 colon
T-47D breast = system: T-47D breast
SF-539 CNS = system: SF-539 CNS
M14 melanoma = system: M14 melanoma
K-562 leukemia = system: K-562 leukemia
HL-60(TB) leukemia = system: HL-60(TB) leukemia
HOP-92 NSCLC = system: HOP-92 NSCLC
786-0 renal = system: 786-0 renal
NCI/ADR-RES ovarian = system: NCI/ADR-RES ovarian
MDA-MB-435 = system: MDA-MB-435
OVCAR-3 ovarian = system: OVCAR-3 ovarian
MOLT-4 leukemia = system: MOLT-4 leukemia
MDA-MB-231 breast = system: MDA-MB-231 breast
U251 CNS = system: U251 CNS
HCT-116 colon = system: HCT-116 colon
SF-295 CNS = system: SF-295 CNS
UACC-257 melanoma = system: UACC-257 melanoma

Q: What does the source list for `COc1ccc(-c2nsc3c2NC(=O)CC3c2ccsc2)cc1` (stereo unspecified)?
A: GI50 (HOP-62 NSCLC): 371 nM; TGI (HOP-62 NSCLC): > 100000 nM; GI50 (HT29 colon): 64.3 nM; TGI (HT29 colon): 32800 nM; GI50 (SK-OV-3 ovarian): 313 nM; TGI (SK-OV-3 ovarian): 13700 nM; GI50 (SNB-19 CNS): 1050 nM; TGI (SNB-19 CNS): > 100000 nM; GI50 (SF-268 CNS): 1340 nM; TGI (SF-268 CNS): > 100000 nM; GI50 (KM12 colon): 71.5 nM; TGI (KM12 colon): > 34000 nM; GI50 (CCRF-CEM leukemia): 268 nM; TGI (CCRF-CEM leukemia): > 100000 nM; GI50 (TK-10 renal): 13800 nM; TGI (TK-10 renal): > 100000 nM; GI50 (DU-145 prostate): 422 nM; TGI (DU-145 prostate): 2870 nM; GI50 (MCF7 breast): 320 nM; TGI (MCF7 breast): > 100000 nM; GI50 (MALME-3M melanoma): 135 nM; TGI (MALME-3M melanoma): 72900 nM; GI50 (SK-MEL-28 melanoma): 4260 nM; TGI (SK-MEL-28 melanoma): > 100000 nM; GI50 (UO-31 renal): 1840 nM; TGI (UO-31 renal): > 100000 nM; GI50 (NCI-H460 lung): 228 nM; TGI (NCI-H460 lung): 9490 nM; GI50 (IGROV1 ovarian): 984 nM; TGI (IGROV1 ovarian): > 100000 nM; GI50 (OVCAR-4 ovarian): 3470 nM; TGI (OVCAR-4 ovarian): > 100000 nM; GI50 (RPMI-8226 leukemia): 279 nM; TGI (RPMI-8226 leukemia): 21000 nM; GI50 (SNB-75 CNS): 119 nM; TGI (SNB-75 CNS): > 100000 nM; GI50 (SK-MEL-5 melanoma): 99.2 nM; TGI (SK-MEL-5 melanoma): 2760 nM; GI50 (HS 578T breast): 269 nM; TGI (HS 578T breast): > 100000 nM; GI50 (SR leukemia): 38.4 nM; TGI (SR leukemia): > 100000 nM; GI50 (HCC-2998 colon): 528 nM; TGI (HCC-2998 colon): > 22700 nM; GI50 (A549 NSCLC): 211 nM; TGI (A549 NSCLC): > 100000 nM; GI50 (OVCAR-5 ovarian): 773 nM; TGI (OVCAR-5 ovarian): > 100000 nM; GI50 (NCI-H522 lung): 139 nM; TGI (NCI-H522 lung): 4250 nM; GI50 (ACHN renal): 1060 nM; TGI (ACHN renal): > 100000 nM; GI50 (CAKI-1 renal): 298 nM; TGI (CAKI-1 renal): > 100000 nM; GI50 (UACC-62 melanoma): 295 nM; TGI (UACC-62 melanoma): 65000 nM; GI50 (BT-549 breast): 1280 nM; TGI (BT-549 breast): 40800 nM; GI50 (RXF 393 renal): 367 nM; TGI (RXF 393 renal): > 100000 nM; GI50 (LOX IMVI melanoma): 422 nM; TGI (LOX IMVI melanoma): > 100000 nM; GI50 (SN12C renal): 830 nM; TGI (SN12C renal): > 100000 nM; GI50 (COLO 205 colon): 110 nM; TGI (COLO 205 colon): 846 nM; GI50 (NCI-H23 lung): 375 nM; TGI (NCI-H23 lung): 73800 nM; GI50 (NCI-H226 lung): 2150 nM; TGI (NCI-H226 lung): 16900 nM; GI50 (SW-620 colon): 68.4 nM; TGI (SW-620 colon): > 100000 nM; GI50 (OVCAR-8 ovarian): 409 nM; TGI (OVCAR-8 ovarian): > 25200 nM; GI50 (PC-3 prostate): 334 nM; TGI (PC-3 prostate): > 100000 nM; GI50 (A498 renal): 171 nM; TGI (A498 renal): 808 nM; GI50 (HCT-15 colon): 101 nM; TGI (HCT-15 colon): > 100000 nM; GI50 (T-47D breast): 454 nM; TGI (T-47D breast): 65600 nM; GI50 (SF-539 CNS): 266 nM; GI50 (M14 melanoma): 167 nM; TGI (M14 melanoma): 23600 nM; GI50 (K-562 leukemia): 46.9 nM; TGI (K-562 leukemia): > 100000 nM; GI50 (HL-60(TB) leukemia): 143 nM; TGI (HL-60(TB) leukemia): 20600 nM; GI50 (HOP-92 NSCLC): 334 nM; TGI (HOP-92 NSCLC): 81500 nM; GI50 (786-0 renal): 1250 nM; TGI (786-0 renal): > 100000 nM; GI50 (NCI/ADR-RES ovarian): 64 nM; TGI (NCI/ADR-RES ovarian): 278 nM; GI50 (MDA-MB-435): 23.5 nM; TGI (MDA-MB-435): 64.4 nM; GI50 (OVCAR-3 ovarian): 211 nM; TGI (OVCAR-3 ovarian): 611 nM; GI50 (MOLT-4 leukemia): 514 nM; TGI (MOLT-4 leukemia): 24100 nM; GI50 (MDA-MB-231 breast): 1260 nM; TGI (MDA-MB-231 breast): > 100000 nM; GI50 (U251 CNS): 299 nM; TGI (U251 CNS): > 100000 nM; GI50 (HCT-116 colon): 126 nM; TGI (HCT-116 colon): > 100000 nM; GI50 (SF-295 CNS): 211 nM; TGI (SF-295 CNS): > 51500 nM; GI50 (UACC-257 melanoma): 3080 nM; TGI (UACC-257 melanoma): 38400 nM
